From ChEMBL document CHEMBL3046781, “Resistance of Helicoverpa assulta (Guenée) (Lepidoptera: Noctuidae) to fenvalerate, phoxim and methomyl in China” (2009)

How the values were obtained:
Type in all cases: functional
Helicoverpa assulta [1] = experiment: Resistance factor, ratio of LD50 for sixth-instar larvae of Helicoverpa assulta HB1 to LD50 for sixth-instar larvae of Helicoverpa assulta at 1.8 to 183360 mg/l
Helicoverpa assulta [2] = experiment: Resistance factor, ratio of LD50 for sixth-instar larvae of Helicoverpa assulta FJ1 to LD50 for sixth-instar larvae of Helicoverpa assulta at 1.8 to 183360 mg/l
Helicoverpa assulta [3] = experiment: Resistance factor, ratio of LD50 for sixth-instar larvae of Helicoverpa assulta SD2 to LD50 for sixth-instar larvae of Helicoverpa assulta at 1.8 to 183360 mg/l
Helicoverpa assulta [4] = experiment: Resistance factor, ratio of LD50 for sixth-instar larvae of Helicoverpa assulta HN1 to LD50 for sixth-instar larvae of Helicoverpa assulta at 1.8 to 183360 mg/l
Helicoverpa assulta [5] = experiment: Resistance factor, ratio of LD50 for sixth-instar larvae of Helicoverpa assulta GZ2 to LD50 for sixth-instar larvae of Helicoverpa assulta at 1.8 to 183360 mg/l
Helicoverpa assulta [6] = experiment: Resistance factor, ratio of LD50 for sixth-instar larvae of Helicoverpa assulta YN3 to LD50 for sixth-instar larvae of Helicoverpa assulta at 1.8 to 183360 mg/l
Helicoverpa assulta [7] = experiment: Resistance factor, ratio of LD50 for sixth-instar larvae of Helicoverpa assulta YN5 to LD50 for sixth-instar larvae of Helicoverpa assulta at 1.8 to 183360 mg/l
Helicoverpa assulta [8] = experiment: Resistance factor, ratio of LD50 for sixth-instar larvae of Helicoverpa assulta YN4 to LD50 for sixth-instar larvae of Helicoverpa assulta at 1.8 to 183360 mg/l
Helicoverpa assulta [9] = experiment: Resistance factor, ratio of LD50 for sixth-instar larvae of Helicoverpa assulta YN8 to LD50 for sixth-instar larvae of Helicoverpa assulta at 1.8 to 183360 mg/l
Helicoverpa assulta [10] = experiment: Insecticidal activity against sixth-instar larvae of Helicoverpa assulta at 1.8 to 183360 mg/l after 48 hr by chi-squared analysis
Helicoverpa assulta [11] = experiment: Insecticidal activity against sixth-instar larvae of Helicoverpa assulta FJ3 at 1.8 to 183360 mg/l after 48 hr by chi-squared analysis
Helicoverpa assulta [12] = experiment: Insecticidal activity against sixth-instar larvae of Helicoverpa assulta YN2 at 1.8 to 183360 mg/l after 48 hr by chi-squared analysis
Helicoverpa assulta [13] = experiment: Insecticidal activity against sixth-instar larvae of Helicoverpa assulta YN6 at 1.8 to 183360 mg/l after 48 hr by chi-squared analysis
Helicoverpa assulta [14] = experiment: Insecticidal activity against sixth-instar larvae of Helicoverpa assulta YN1 at 1.8 to 183360 mg/l after 48 hr by chi-squared analysis
Helicoverpa assulta [15] = experiment: Insecticidal activity against sixth-instar larvae of Helicoverpa assulta GZ4 at 1.8 to 183360 mg/l after 48 hr by chi-squared analysis
Helicoverpa assulta [16] = experiment: Insecticidal activity against sixth-instar larvae of Helicoverpa assulta HB2 at 21 to 3390 mg/l after 48 hr by chi-squared analysis
Helicoverpa assulta [17] = experiment: Resistance factor, ratio of LD50 for sixth-instar larvae of Helicoverpa assulta YN2 to LD50 for sixth-instar larvae of Helicoverpa assulta at 21 to 3390 mg/l
Helicoverpa assulta [18] = experiment: Resistance factor, ratio of LD50 for sixth-instar larvae of Helicoverpa assulta FJ3 to LD50 for sixth-instar larvae of Helicoverpa assulta at 21 to 3390 mg/l
Helicoverpa assulta [19] = experiment: Resistance factor, ratio of LD50 for sixth-instar larvae of Helicoverpa assulta GZ3 to LD50 for sixth-instar larvae of Helicoverpa assulta at 21 to 3390 mg/l
Helicoverpa assulta [20] = experiment: Resistance factor, ratio of LD50 for sixth-instar larvae of Helicoverpa assulta YN6 to LD50 for sixth-instar larvae of Helicoverpa assulta at 21 to 3390 mg/l
Helicoverpa assulta [21] = experiment: Resistance factor, ratio of LD50 for sixth-instar larvae of Helicoverpa assulta HB2 to LD50 for sixth-instar larvae of Helicoverpa assulta at 21 to 3390 mg/l
Helicoverpa assulta [22] = experiment: Insecticidal activity against sixth-instar larvae of Helicoverpa assulta YN3 at 21 to 3390 mg/l after 48 hr by chi-squared analysis
Helicoverpa assulta [23] = experiment: Resistance factor, ratio of LD50 for sixth-instar larvae of Helicoverpa assulta GZ4 to LD50 for sixth-instar larvae of Helicoverpa assulta at 39 to 12630 mg/l
Helicoverpa assulta [24] = experiment: Resistance factor, ratio of LD50 for sixth-instar larvae of Helicoverpa assulta FJ1 to LD50 for sixth-instar larvae of Helicoverpa assulta at 39 to 12630 mg/l
Helicoverpa assulta [25] = experiment: Insecticidal activity against sixth-instar larvae of Helicoverpa assulta YN5 at 39 to 12630 mg/l after 48 hr by chi-squared analysis
Helicoverpa assulta [26] = experiment: Insecticidal activity against sixth-instar larvae of Helicoverpa assulta FJ2 at 39 to 12630 mg/l after 48 hr by chi-squared analysis
Helicoverpa assulta [27] = experiment: Insecticidal activity against sixth-instar larvae of Helicoverpa assulta HN2 at 39 to 12630 mg/l after 48 hr by chi-squared analysis
Helicoverpa assulta [28] = experiment: Insecticidal activity against sixth-instar larvae of Helicoverpa assulta at 39 to 12630 mg/l after 48 hr by chi-squared analysis
Helicoverpa assulta [29] = experiment: Insecticidal activity against sixth-instar larvae of Helicoverpa assulta GZ4 at 39 to 12630 mg/l after 48 hr by chi-squared analysis
Helicoverpa assulta [30] = experiment: Insecticidal activity against sixth-instar larvae of Helicoverpa assulta SD2 at 39 to 12630 mg/l after 48 hr by chi-squared analysis
Helicoverpa assulta [31] = experiment: Insecticidal activity against sixth-instar larvae of Helicoverpa assulta HB2 at 39 to 12630 mg/l after 48 hr by chi-squared analysis
Helicoverpa assulta [32] = experiment: Resistance factor, ratio of LD50 for sixth-instar larvae of Helicoverpa assulta AH3 to LD50 for sixth-instar larvae of Helicoverpa assulta at 39 to 12630 mg/l
Helicoverpa assulta [33] = experiment: Resistance factor, ratio of LD50 for sixth-instar larvae of Helicoverpa assulta GZ1 to LD50 for sixth-instar larvae of Helicoverpa assulta at 39 to 12630 mg/l
Helicoverpa assulta [34] = experiment: Resistance factor, ratio of LD50 for sixth-instar larvae of Helicoverpa assulta YN5 to LD50 for sixth-instar larvae of Helicoverpa assulta at 39 to 12630 mg/l
Helicoverpa assulta [35] = experiment: Resistance factor, ratio of LD50 for sixth-instar larvae of Helicoverpa assulta FJ2 to LD50 for sixth-instar larvae of Helicoverpa assulta at 39 to 12630 mg/l

CC(C)C(C(=O)OC(C#N)c1cccc(Oc2ccccc2)c1)c1ccc(Cl)cc1 (stereo not given) [FENVALERATE]
Ratio (Helicoverpa assulta [1]): 5.83
Ratio (Helicoverpa assulta [2]): 9.01
Ratio (Helicoverpa assulta [3]): 12
Ratio (Helicoverpa assulta [4]): 64.9
Ratio (Helicoverpa assulta [5]): 1042
Ratio (Helicoverpa assulta [6]): 1403
Ratio (Helicoverpa assulta [7]): 8816
Ratio (Helicoverpa assulta [8]): 9231
Ratio (Helicoverpa assulta [9]): 17622
LD90 (Helicoverpa assulta [10]): 0.723 µg/g
LD50 (Helicoverpa assulta [10]; Helicoverpa assulta, 48 h): 0.162 mg/kg
LD90 (Helicoverpa assulta [11]): 3.39 µg/g
LD50 (Helicoverpa assulta [11]; Helicoverpa assulta, FJ3, 48 h): 1.47 mg/kg
LD90 (Helicoverpa assulta [12]): 673 µg/g
LD50 (Helicoverpa assulta [12]; Helicoverpa assulta, YN2, 48 h): 213 mg/kg
LD90 (Helicoverpa assulta [13]): 1467 µg/g
LD50 (Helicoverpa assulta [13]; Helicoverpa assulta, YN6, 48 h): 667 mg/kg
LD90 (Helicoverpa assulta [14]): 4059 µg/g
LD50 (Helicoverpa assulta [14]; Helicoverpa assulta, YN1, 48 h): 1360 mg/kg
LD90 (Helicoverpa assulta [15]): 133 µg/g
LD50 (Helicoverpa assulta [15]; Helicoverpa assulta, GZ4, 48 h): 56.2 mg/kg

CNC(=O)ON=C(C)SC [METHOMYL]
LD90 (Helicoverpa assulta [16]): 108 µg/g
LD50 (Helicoverpa assulta [16]; Helicoverpa assulta, HB2, 48 h): 15.8 mg/kg
Ratio (Helicoverpa assulta [17]): 18.4
Ratio (Helicoverpa assulta [18]): 16.3
Ratio (Helicoverpa assulta [19]): 14.4
Ratio (Helicoverpa assulta [20]): 13.7
Ratio (Helicoverpa assulta [21]): 10.9
LD90 (Helicoverpa assulta [22]): 78.5 µg/g
LD50 (Helicoverpa assulta [22]; Helicoverpa assulta, YN3, 48 h): 33.3 mg/kg

CCOP(=S)(OCC)O/N=C(\C#N)c1ccccc1 [PHOXIM]
Ratio (Helicoverpa assulta [23]): 7.89
Ratio (Helicoverpa assulta [24]): 7.13
LD90 (Helicoverpa assulta [25]): 83.8 µg/g
LD50 (Helicoverpa assulta [25]; Helicoverpa assulta, YN5, 48 h): 25.7 mg/kg
LD90 (Helicoverpa assulta [26]): 86.5 µg/g
LD50 (Helicoverpa assulta [26]; Helicoverpa assulta, FJ2, 48 h): 22 mg/kg
LD90 (Helicoverpa assulta [27]): 19.9 µg/g
LD50 (Helicoverpa assulta [27]; Helicoverpa assulta, HN2, 48 h): 8.22 mg/kg
LD90 (Helicoverpa assulta [28]): 5.54 µg/g
LD50 (Helicoverpa assulta [28]; Helicoverpa assulta, 48 h): 2.34 mg/kg
LD90 (Helicoverpa assulta [29]): 51.7 µg/g
LD50 (Helicoverpa assulta [29]; Helicoverpa assulta, GZ4, 48 h): 18.4 mg/kg
LD90 (Helicoverpa assulta [30]): 50.5 µg/g
LD50 (Helicoverpa assulta [30]; Helicoverpa assulta, SD2, 48 h): 17.2 mg/kg
LD90 (Helicoverpa assulta [31]): 37.4 µg/g
LD50 (Helicoverpa assulta [31]; Helicoverpa assulta, HB2, 48 h): 11.8 mg/kg
Ratio (Helicoverpa assulta [32]): 14.3
Ratio (Helicoverpa assulta [33]): 14.3
Ratio (Helicoverpa assulta [34]): 11
Ratio (Helicoverpa assulta [35]): 9.41
